± gives the expanded uncertainty stated by the source.
Test: molar heat capacity at constant pressure
Settings: 101.33 kPa, Crystal, Small sample (50 mg) DSC

[Na+].[O]=[Re](=[O])(=[O])[O-] [sodium perrhenate]
Settings	molar heat capacity at constant pressure [J/K/mol]
298.15 K	118.8 ± 2.4
323.15 K	122.2 ± 2.4
348.15 K	125.5 ± 2.5
373.15 K	128.9 ± 2.6
398.15 K	131.8 ± 2.6
423.15 K	135.1 ± 2.7
448.15 K	137.2 ± 2.7
473.15 K	139.7 ± 2.8
498.15 K	142.3 ± 2.8
523.15 K	144.8 ± 2.9
548.15 K	146.9 ± 2.9
573.15 K	148.1 ± 3
598.15 K	149.4 ± 3

Reference: the NIST ThermoML archive (doi:10.1016/j.jct.2009.04.004)
